Measured values from patent US20040038369A1, “Airway-specific trypsin-like enzymes and method of using the same” (priority 2000, published 2004).
Structures can show the parent of a compound that is named as a salt.

Experiments:
recombinant AST = molecular target: T1, recombinant AST (Homo sapiens, UniProt O60235); experiment: AST-inhibiting activity of compound; format: biochemical; details: substrate Boc-Phe-Ser-Arg-MCA, 24° C., 6 minutes
T1 construct: 232 amino acids from Ile at the 187th position to Ile at the 418th position; made in house; host or cells: insect cells (Tn-5), recombinant baculovirus
Method: 0.05 mL of a 50 mM Tris-HCl buffer solution (pH 8.6) containing 2 ng/mL of the recombinant AST and 0.01% of Tween 20 was mixed with 2 μL of a DMSO solution containing nafamostat mesylate or gabexate mesylate as an evaluation target compound in various concentrations, and with 0.05 mL of a 50 mM Tris-HCl buffer solution (pH 8.6) containing 30 μM of a trypsin synthesis substrate: Boc-Phe-Ser-Arg-MCA, and incubated at 24° C. for 6 minutes. The quantities of the produced AMC were assayed by a fluorometry (fluorescent light: 460 nm, exciting light: 380 nm) with the passage of time, and the enzymatic activity-inhibiting ability of the compound was evaluated.

[1] = tested on: normal human airway epithelial cells; experiment: Calcium influx in normal human airway epithelial cells; format: cell-based; details: AST 2 units/mL; trypsin 10 to 100 units/mL; SFLLRNamide 100 μM
Method: The Ca^2+ influx due to the AST was examined with confluent normal epithelial cells adhered to three 10 cm dishes (purchased from BioWhittaker Corp.). The cells were peeled with a 10 mM EDTA/HEPES-Tyrode buffer solution for 10 minutes, recovered by a centrifugal treatment at 800 rpm at room temperature for 5 minutes, and then resuspended in 5 mL of HEPES-Tyrode buffer solution-Ca^2+ (−) pH 7.4. The recovered cells (about 1.2×10^6 cells) were suspended in 5 mL of HEPES-Tyrode buffer solution (1 μg/mL, containing Fura2-AM) to load the Fura2-AM to the cells at 37° C. for one hour. The cells were recovered by a centrifugal treatment at 800 rpm at room temperature for 5 minutes, twice washed with HEPES-Tyrode buffer solution-Ca^2+ (−) pH 7.4, and then resuspended in […] of HEPES-Tyrode buffer solution-Ca^2+ (−) pH 7.4. The cell suspension was mixed with 5 μL of 1M CaCl2 to give a final concentration of 1 mM CaCl2, and then incubated in a shaded state at room temperature for 5 minutes. The prepared Fura2-AM-loaded infected cells were dispensed into a 96 well plate in a volume of 100 μL/well, further subjected to the dispensation of HEPES-Tyrode buffer solution-Ca^2+ (+) pH 7.4 in a volume of 80 μL/well, and then assayed with Fluorescence Drug Screening System (Hamamatsu Photonics Co.). […]

BEAS-2B = experiment: Calcium influx in airway epithelial cell strain BEAS-2B; format: cell-based; details: AST 2 units/mL; trypsin 10 to 100 units/mL; SFLLRNamide 100 μM
Method: The Ca^2+ influx due to the AST was examined with respect to an airway epithelial cell strain BEAS-2B. The confluent cells adhered to six 10 cm dishes were used. The cells were peeled with a 10 mM EDTA/HEPES-Tyrode buffer solution for 10 minutes, recovered by a centrifugal treatment at 1,500 rpm at room temperature for 5 minutes, and then resuspended in 10 mL of HEPES-Tyrode buffer solution-Ca^2+ (−) pH 7.4. The recovered cells (about 1.1×10^7 cells) were suspended in 11 mL of HEPES-Tyrode buffer solution (1 μg/mL, containing Fura2-AM) to load the Fura2-AM at 37° C. for 30 minutes. The cells were recovered by a centrifugal treatment at 1,500 rpm at room temperature for 5 minutes, twice washed with HEPES-Tyrode buffer solution-Ca^2+ (−) pH 7.4, and then resuspended in 11 mL of HEPES-Tyrode buffer solution-Ca^2+ (−) pH 7.4. The cell suspension was mixed with […] of 1M CaCl2 to give a final concentration of 1 mM CaCl2, and then incubated in a shaded state at room temperature for 5 minutes. The prepared Fura2-AM-loaded infected cells were dispensed into a 96 well plate in a volume of 100 μL/well, further subjected to the dispensation of HEPES-Tyrode buffer solution-Ca^2+ (+) pH 7.4 in a volume of 80 μL/well, and then assayed with Fluorescence Drug Screening System (Hamamatsu Photonics Co.). […]

PAR-2 = molecular target: T2, PAR-2 (Homo sapiens, UniProt P55085); experiment: Calcium influx in PAR-2-expressing insect cells; format: cell-based; details: AST 2 units/mL; trypsin, thrombin 0.1 to 10 units/mL; SFLLRNamide, SLIGRL 10 to 100 μM
T2 construct: expressed in transfected cells; host or cells: Sf9 insect cells infected with recombinant baculovirus VL-PAR (pVL1393)
T2 sequence (P55085 26-397): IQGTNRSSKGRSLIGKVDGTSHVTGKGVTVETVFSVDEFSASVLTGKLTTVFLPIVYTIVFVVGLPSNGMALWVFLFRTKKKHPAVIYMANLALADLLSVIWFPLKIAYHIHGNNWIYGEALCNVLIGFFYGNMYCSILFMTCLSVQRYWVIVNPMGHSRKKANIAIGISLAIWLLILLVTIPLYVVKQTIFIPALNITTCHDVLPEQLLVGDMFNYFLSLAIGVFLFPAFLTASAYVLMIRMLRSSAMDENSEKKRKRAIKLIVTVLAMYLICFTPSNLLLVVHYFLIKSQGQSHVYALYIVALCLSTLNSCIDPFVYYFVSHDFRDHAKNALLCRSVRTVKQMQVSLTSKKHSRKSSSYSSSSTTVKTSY
Method: The above-obtained recombinant baculovirus VL-PAR for expressing the PAR was used to infect 1.0×10^7 Sf9 cells sowed on a 75 cm^2 flask at an MOI=2, and was then left and stationally cultured at 27° C. for 40 hours. After the culture, the infected cells were recovered and then subjected to a calcium influx experiment to-confirm the function of the PAR.
The recovered infected cells (about 5×10^6 cells) were once washed with HEPES-Tyrode buffer solution-Ca^2+ (−) pH 7.4, and then suspended in 5 mL of HEPES-Tyrode buffer solution (containing Fura2-AM, 1 μg/mL) to load the Fura2-AM on the cells at 27° C. for 30 minutes. The suspension was centrifuged at 800 rpm at room temperature for 5 minutes to recover the cells. The cells were twice washed with HEPES-Tyrode buffer solution-Ca^2+ (−) pH 7.4 and then resuspended in 5 mL of HEPES-Tyrode buffer solution-Ca^2+ (−) pH 7.4. The cell suspension was mixed with 5 μL of 1M CaCl2 to give a final concentration of 1 mM CaCl2, and then incubated in a shaded state at room temperature for 5 minutes. The prepared Fura2-AM-loaded infected cells were dispensed into a 96 well plate in a volume of 100 μL/well, further subjected to the dispensation of HEPES-Tyrode buffer solution-C^2+ (+) pH 7.4 in a volume of 80 μL/well, and then assayed with a Fluorescence Drug Screening System (made by Hamamatsu Photonics Co.). Namely, [intensity of 500 nm fluorescent light due to 340 nm exciting light]/[intensity of 500 nm fluorescent light due to 380 nm exciting light] (reflecting the concentration of calcium in the cells) was assayed.

T1 sequence (O60235 187-418): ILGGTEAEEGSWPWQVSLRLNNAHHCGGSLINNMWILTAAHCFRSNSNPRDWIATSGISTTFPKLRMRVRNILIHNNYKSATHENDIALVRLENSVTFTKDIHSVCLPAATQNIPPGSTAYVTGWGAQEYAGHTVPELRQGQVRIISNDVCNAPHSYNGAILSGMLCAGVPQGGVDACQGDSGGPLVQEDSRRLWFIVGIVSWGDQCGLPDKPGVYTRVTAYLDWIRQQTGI
T1 sequence (O60235 162-186 partner limits assumed): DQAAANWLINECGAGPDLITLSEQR

Row | Molecule | IC50 (recombinant AST) [nM] | Ca2+ influx [1] | Ca2+ influx (BEAS-2B) | Ca2+ influx (PAR-2)
1 | N=C(N)c1ccc2cc(OC(=O)c3ccc(N=C(N)N)cc3)ccc2c1 [Nafamostat mesylate, nafamostat mesylate] | 230 |  |  | 
2 | SFLLRNamide [reference compound] |  | observed | observed | observed
3 | gabexate mesylate | 140 |  |  | 
